The source of these data is patent publication US10273290B2, “Hydrocarbon double-stapled stabilized HIV-1 GP41 heptad repeat domain peptides” (DANA-FARBER CANCER INSTITUTE, INC., priority 2009, dated 2019).

Data set [1] is described as follows: Circular dichroism, α-helical content. Type of data set: physicochemical. As for the experimental part: The α-helicity of stapled modified polypeptides was compared to their unmodified counterparts by circular dichroism. CD spectra were obtained on an Aviv spectropolarimeter at 20° C. using the following standard measurement parameters: wavelength, 190-260 nm; step resolution, 0.5 nm; speed, 20 nm/sec; accumulations, 10; response, 1 sec; bandwidth, 1 nm; path length, 0.1 cm. The α-helical content of each peptide was calculated by dividing the mean residue ellipticity [θ]222obs, by the reported [θ]222obs for a model helical peptide (Forood, B., E. J. Feliciano, and K. P. Nambiar, PNAS, 1993. 90(3): p. 838-842; J. Martin Scholtz, Biopolymers, 1991. 31(13): p. 1463-1470; Lawless, M. K., et al., Biochemistry, 1996. 35(42): p. 13697-13708) or using, for example, the Aviv machine using CDNN software developed by Brohm in order to deduce five different secondary structure fractions (helix, parallel and antiparallel beta-sheet, beta-turn and random coil). Protein Engineering, 1992. 5(3); p. 191-195
In order to evaluate secondary structure improvements of hydrocarbon-stapled peptides, we record and analyze circular dichroism (CD) spectra on an Aviv Biomedical spectrometer (model 410), as described above. […] The CD spectra are initially plotted as wavelength versus millidegree. […] After conversion to mean residue ellipticity, percent α-helicity can be calculated using the equation, % helicity=100×[θ]222/^max[θ]222, where ^max[θ]222=−40,000×[1−(2.5/number of amino acid residues)]. We also employ the curve-fitting CDDN software that is bundled with our spectrometer to calculate the relative fractions of secondary structure including α-helix, parallel and antiparallel β-sheet, β-turn and random coil.

A further data set addresses T1, chymotrypsin (Bos taurus, UniProt P00766).
T1 construct: purchased Sigma
Description: Protease resistance assay, chymotrypsin (LC/MS). The data set is classed as in vitro ADME. As to conditions: pH 7.4, 0.5 chymotrypsin, peptide 25 μM.

A short description of a further data set: Chymotrypsin, pH 7. The source says:
Table printed on a drawing sheet, FIG. 17D
Title: Chymotrypsin, pH 7
First reader's note: The table also serves as the legend of the plot below it (fraction intact over time); the plot symbols before the compound names are left out.

In data set [2] the test system is doubly-mutant HR1 peptides V38A/N42T and V38E/N42S. Description: Native PAGE complex assembly with mutant HR1 peptides. Particulars: for higher-order complex formation with doubly-mutant HR1 peptides: FITC-labeled peptides, native PAGE. Type of data set: binding, HIV-1. The source says:
We first performed a native PAGE-based assay designed to monitor the capacity of FITC-HR2 and mutant HR1 peptides to interact to form a stable higher-order complex (He, Y., et al. PNAS (2008)).

A further data set has as its system pepsin. The experiment in a line: Protease resistance assay, pepsin at pH 2. As to conditions: pepsin at 0.5 ng/μL, peptide 25 μM, acidic conditions. As for the experimental part:
The DAD signal was set to 280 nm with an 8 nm bandwidth and MSD set to scan mode with one channel at (M+2H)/2, +1 mass units and the other at (M+3H)/3, +1 mass units. […] Reaction samples were composed of 5 μL peptide in DMSO (1 mM stock) and 195 μL of buffer consisting of 50 mM phosphate buffer pH 7.4 containing 2 mM CaCl2. Upon injection of the 0 hr time point sample, 2 μL of 50 ng/μL chymotrypsin (Sigma) was added and the amount of intact peptide quantitated by serial injection over time. An internal control of acetylated tryptophan carboxamide at a concentration of 100 μM was used to normalize each MSD data point. A plot of MSD area versus time yielded an exponential decay curve and half-lives were determined by nonlinear regression analysis using Prism software (GraphPad). The assay was also performed using trypsin and pepsin in their appropriate buffer conditions.

Bridge positions count the residues as written; N and C are the ends. Square brackets hold non-standard residues; d marks the D form. Ends that are not written are not given here. Peptide text beside a SMILES is read from it. * marks the point of attachment. FITC = O=C1OC2(c3ccc(O)cc3Oc3cc(O)ccc32)c2ccc(NC(=S)*)cc21; S5 = C=CCCC[C@](C)(N)C(=O)O; Nle = CCCC[C@H](N)C(=O)O

`CCCC[C@H](NC(C)=O)C(=O)N[C@H](C(=O)N[C@@H](Cc1c[nH]c2ccccc12)C(=O)N[C@@H](CCCC)C(=O)N[C@@H](CCC(=O)O)C(=O)N[C@@H](Cc1c[nH]c2ccccc12)C(=O)N[C@@H](CC(=O)O)C(=O)N[C@@H](CCCNC(=N)N)C(=O)N[C@@H](CCC(=O)O)C(=O)N[C@H](C(=O)N[C@@]1(C)CCCC=CCCC[C@@](C)(C(=O)N[C@@H](CC(C)C)C(=O)N[C@H](C(=O)N[C@@H](Cc2c[nH]cn2)C(=O)N[C@@H](CO)C(=O)N[C@@H](CC(C)C)C(=O)N[C@H](C(=O)N[C@@H](CCC(=O)O)C(=O)N[C@@H](CCC(=O)O)C(=O)N[C@@H](CO)C(=O)N[C@@H](CCC(N)=O)C(=O)N[C@@H](CC(N)=O)C(=O)N[C@@H](CCC(N)=O)C(=O)N[C@@]2(C)CCCC=CCCC[C@@](C)(C(=O)N[C@@H](CCC(N)=O)C(=O)N[C@@H](CCC(=O)O)C(=O)N[C@@H](CC(C)C)C(=O)N[C@@H](CC(C)C)C(=O)N[C@@H](CCC(=O)O)C(N)=O)NC(=O)[C@H](CC(N)=O)NC(=O)[C@H](CCCCN)NC(=O)[C@H](CCC(=O)O)NC2=O)[C@@H](C)CC)[C@@H](C)CC)NC(=O)[C@H]([C@@H](C)O)NC(=O)[C@H](Cc2ccc(O)cc2)NC(=O)[C@H](CC(N)=O)NC1=O)[C@@H](C)CC)[C@@H](C)O` [SAH-gp41(626-662)(C, F)] (Ac-[Nle]TW[Nle]EWDREI[S5]NYT[S5]LIHSLIEESQNQ[S5]EKN[S5]QELLE-NH2; staple 11-15, 28-32): in data set [1], the “% helicity at pH 2” value is listed as 55% and the “% helicity at pH 7” value is on record as 41%. The compound also showed a Half-Life at chymotrypsin of 8.23 h.

Take `CCCC[C@H](NC(C)=O)C(=O)N[C@H](C(=O)N[C@@H](Cc1c[nH]c2ccccc12)C(=O)N[C@@H](CCCC)C(=O)N[C@@H](CCC(=O)O)C(=O)N[C@@H](Cc1c[nH]c2ccccc12)C(=O)N[C@@H](CC(=O)O)C(=O)N[C@@H](CCCNC(=N)N)C(=O)N[C@@H](CCC(=O)O)C(=O)N[C@H](C(=O)N[C@@H](CC(N)=O)C(=O)N[C@@H](CC(N)=O)C(=O)N[C@@H](Cc1ccc(O)cc1)C(=O)N[C@H](C(=O)N[C@@]1(C)CCCC=CCCC[C@@](C)(C(=O)N[C@@H](CC(C)C)C(=O)N[C@H](C(=O)N[C@@H](CCC(=O)O)C(=O)N[C@@H](CCC(=O)O)C(=O)N[C@@H](CO)C(=O)N[C@@H](CCC(N)=O)C(=O)N[C@@H](CC(N)=O)C(=O)N[C@@H](CCC(N)=O)C(=O)N[C@@]2(C)CCCC=CCCC[C@@](C)(C(=O)N[C@@H](CCC(N)=O)C(=O)N[C@@H](CCC(=O)O)C(=O)N[C@@H](CC(C)C)C(=O)N[C@@H](CC(C)C)C(=O)N[C@@H](CCC(=O)O)C(N)=O)NC(=O)[C@H](CC(N)=O)NC(=O)[C@H](CCCCN)NC(=O)[C@H](CCC(=O)O)NC2=O)[C@@H](C)CC)NC(=O)[C@H](Cc2c[nH]cn2)NC(=O)[C@H]([C@@H](C)CC)NC(=O)[C@H](CC(C)C)NC1=O)[C@@H](C)O)[C@@H](C)CC)[C@@H](C)O` [SAH-gp41(626-662)(D, F)] (Ac-[Nle]TW[Nle]EWDREINNYT[S5]LIH[S5]LIEESQNQ[S5]EKN[S5]QELLE-NH2; staple 15-19, 28-32): the Half-Life at chymotrypsin came out at 3.02 h. In the case of Enfuvirtide, the “Half-Life” value in the data set “Chymotrypsin, pH 7” was determined as 0.2 h. Take “FITC-SAH-gp41(626-662)(A, F): FITC-labeled doubly stapled SAH-gp41(626-662)(A, F) ({FITC}-LTWAEWDAEINNYTSLIHSLIEESQNQAEKNAQELLE; not fully specified (bridges); also: doubly stapled, positions not given here)”: the “higher-order complex formation with doubly-mutant HR1 peptides” value (“higher-order complex formation” below) in data set [2] is on record as “formed a higher-order complex”. In addition, the “fold enhancement in binding activity” value in data set [2] (compared to FITC-T649v, densitometric analyses) is “up to 2 fold”. As to “FITC-T649v: FITC-labeled T649v ({FITC}-LTWLEWDREINNYTSLIHSLIEESQNQQEKNEQELLE) [reference compound]”, in data set [2], the “higher-order complex formation” value is recorded as “formed a higher-order complex”. Take “FITC-labeled enfuvirtide: FITC-labeled enfuvirtide [reference compound]”: in data set [2], the “higher-order complex formation” value is reported as “no interactions”. As for enfuvirtide [listing 1 of 5 here], in data set [1], the “% helicity at pH 2” value worked out at 79% and the “% helicity at pH 7” value came out at 23%. The “Half-Life” value in “Chymotrypsin, pH 7” is 0.417 h. Further, the “Half-life (minutes), pepsin” value with pepsin amounted to 3 min. As to enfuvirtide [listing 2 of 5 here], in data set [1], the “% helicity at pH 2” value is given as 57% and the “% helicity at pH 7” value came to 30%. Turning to enfuvirtide [listing 3 of 5 here], in the data set with pepsin, the “Half-life (minutes), pepsin” value is 920 min. With enfuvirtide [listing 4 of 5 here], in data set [1], the “% helicity at pH 2” value was 61% and the “% helicity at pH 7” value amounted to 48%. Moreover, the “Half-Life” value in “Chymotrypsin, pH 7” was 1.67 h. The “Half-life (minutes), pepsin” value with pepsin was determined as 227 min. Take enfuvirtide [listing 5 of 5 here]: in data set [1], the “% helicity at pH 2” value was 66% and the “% helicity at pH 7” value is 26%.

In data set [1] (comparative CD spectra, 20-mer residues 626-645), “unstapled counterpart: unstapled 20-mer truncation of T649v, residues 626-645 ([Nle]TW[Nle]EWDREINNYTSLIHSL) [reference compound]” showed a α-helical content of 20%.
